{"source": "patent US9109041B2", "about": "“Analog compounds of analgesic peptides derived from the venom of crotalus durissus terrificus snakes, their uses, compositions, methods of preparation and purification” (priority 2004, dated 2015)", "key": {"[1]": {"tested_on": "prostaglandin E2-induced hyperalgesia", "assay": "rat paw pressure test, prostaglandin E2-induced hyperalgesia", "conditions": "for 50% effective dose / 60% effective dose / 90% effective dose: reversal of PGE2-induced hyperalgesia, CurveExpert 1.3"}, "[2]": {"tested_on": "hyperalgesia induced by chronic constriction of the sciatic nerve", "assay": "hyperalgesia induced by chronic constriction of the sciatic nerve (rat paw pressure test)", "assay_type": "in vivo", "conditions": "for pain threshold, BM: before surgery; for pain threshold, FM 1 h: day 14, 1 h after peptide; for pain threshold, FM 3 h: day 14, 3 h after peptide; for pain threshold, FM 24 h: day 14, 24 h after peptide; for pain threshold, FM 48 h: day 14, 48 h after peptide; for pain threshold, FM 72 h: day 14, 72 h after peptide; for pain threshold, FM 96 h: day 14, 96 h after peptide; for pain threshold, IM: day 14 after surgery, before peptide", "experimental": "For the induction of neuropathic pain, surgery was performed in the sciatic nerve, in accordance with the method described by Bennett, G. J and Xie, Y. K. (Pain, 33:87-107, 1988). The animals were anesthetized with halothane. The sciatic nerve was exposed in the middle region of the thigh, moving away the femoral biceps muscle. Close to the trifurcation of the sciatic nerve, 7 mm of distance from the trifurcation, 4 loose ligations were performed (chromed catgut 4-0) around it, distant from each other in approximately 1 mm. The bindings were performed along the nerve, up to 4-5 mm from the initial point. The incision was sutured in layers, using silk suture thread number 4-0.\nThe test was applied before (BM-basal measurement) and on the 14th day after the surgery, to characterize the development of neuropathic pain.\nThe results were analyzed by comparing the means of the basal and initial measurements or by comparing the means of the initial and final measurements or, when determined, through the comparison of the means obtained in the different experimental groups.\nFor this purpose, the animals were treated with CTOP, a specific μ receptor antagonist (20 μg/paw), nor-BNI, a specific κ receptor antagonist (50 μg/paw) or with ICI 174,864, a specific δ receptor antagonist (10 μg/paw). The antagonists were injected, by intraplantar route. The peptide was administered in the dose of 5 μg/kg, orally, immediately before the injection of the opioid antagonists.\nThe results were analyzed comparing the mean values of the basal and initial measurements, or of the initial and final measurements or, when determined, by comparing the mean values obtained in the different experimental groups (Tables 15 and 16)."}}, "data": [{"substance": "Xaa-Phe-Ser-Pro-Glu-Asn-Cys-Gln-Gly-Glu-Ser-Gln-Pro-Cys [SEQ ID NO: 2]", "values": [{"measurement": "pain threshold, FM (g) ± S.E.M", "setting": "[1]; 1 μg/kg p.o., 3 h after PGE2 100 ng/paw i.pl. (Table 7)", "result": "111 ± 3.32", "unit": "g"}, {"measurement": "pain threshold, FM (g) ± S.E.M", "setting": "[1]; 1 μg/kg p.o., 24 h after administration, PGE2 100 ng/paw 3 h before measurement", "result": "126 ± 3.32", "unit": "g"}, {"measurement": "pain threshold, FM (g) ± S.E.M", "setting": "[1]; 1 μg/kg p.o., 48 h after administration, PGE2 100 ng/paw 3 h before measurement", "result": "121 ± 1.87", "unit": "g"}, {"measurement": "pain threshold, FM (g) ± S.E.M", "setting": "[1]; 1 μg/kg p.o., 72 h after administration, PGE2 100 ng/paw 3 h before measurement", "result": "111 ± 4.3", "unit": "g"}, {"measurement": "pain threshold, FM (g) ± S.E.M", "setting": "[1]; 1 μg/kg p.o., 96 h after administration, PGE2 100 ng/paw 3 h before measurement", "result": "117 ± 2.5", "unit": "g"}, {"measurement": "pain threshold, FM (g) ± S.E.M", "setting": "[1]; 1 μg/kg p.o., 120 h after administration, PGE2 100 ng/paw 3 h before measurement", "result": "130 ± 2.24", "unit": "g"}, {"measurement": "pain threshold, FM (g) ± S.E.M", "setting": "[1]; 1 μg/kg p.o., 144 h after administration, PGE2 100 ng/paw 3 h before measurement", "result": "59 ± 2.39", "unit": "g"}, {"measurement": "pain threshold, IM (g) ± S.E.M.", "setting": "[1]; 1.0 μg/kg p.o., before PGE2 (Table 2)", "result": "77 ± 2.00", "unit": "g"}, {"measurement": "pain threshold, IM (g) ± S.E.M.", "setting": "[1]; 1 μg/kg p.o., before PGE2 (Table 7)", "result": "77 ± 1.22", "unit": "g"}, {"measurement": "pain threshold, FM (g) ± S.E.M", "setting": "[1]; 5 μg/kg p.o. + ICI174,864 i.pl. with PGE2, 3 h after PGE2", "result": "145 ± 2.89", "unit": "g"}, {"measurement": "pain threshold, IM (g) ± S.E.M.", "setting": "[1]; 5 μg/kg p.o. + ICI174,864 i.pl., before PGE2", "result": "77 ± 1.05", "unit": "g"}, {"measurement": "pain threshold, FM (g) ± S.E.M", "setting": "[1]; 5 μg/kg p.o. + nor-BNI i.pl. with PGE2, 3 h after PGE2", "result": "58 ± 2.47", "unit": "g"}, {"measurement": "pain threshold, IM (g) ± S.E.M.", "setting": "[1]; 5 μg/kg p.o. + nor-BNI i.pl., before PGE2", "result": "77 ± 1.05", "unit": "g"}, {"measurement": "pain threshold, FM (g) ± S.E.M", "setting": "[1]; 5.0 μg/kg p.o., 3 h after PGE2 100 ng/paw i.pl. (Table 2)", "result": "130 ± 1.58", "unit": "g"}, {"measurement": "pain threshold, FM (g) ± S.E.M", "setting": "[1]; 5 μg/kg p.o., 3 h after PGE2 100 ng/paw i.pl. (Table 8)", "result": "147 ± 2.55", "unit": "g"}, {"measurement": "pain threshold, IM (g) ± S.E.M.", "setting": "[1]; 5.0 μg/kg p.o., before PGE2 (Table 2)", "result": "78 ± 2.00", "unit": "g"}, {"measurement": "pain threshold, IM (g) ± S.E.M.", "setting": "[1]; 5 μg/kg p.o., before PGE2 (Table 8)", "result": "77 ± 1.22", "unit": "g"}, {"measurement": "pain threshold, FM (g) ± S.E.M", "setting": "[1]; 25.0 μg/kg p.o., 3 h after PGE2 100 ng/paw i.pl.", "result": "133 ± 3.39", "unit": "g"}, {"measurement": "pain threshold, IM (g) ± S.E.M.", "setting": "[1]; 25.0 μg/kg p.o., before PGE2", "result": "79 ± 1.87", "unit": "g"}, {"measurement": "50% effective dose", "setting": "[1]; intraplantar route", "result": 0.000002327, "unit": "µg/kg"}, {"measurement": "60% effective dose", "setting": "[1]; intraplantar route", "result": 0.000004904, "unit": "µg/kg"}, {"measurement": "90% effective dose", "setting": "[1]; intraplantar route", "result": 0.002876, "unit": "µg/kg"}, {"measurement": "50% effective dose", "setting": "[1]; intravenous route", "result": 0.0000458, "unit": "µg/kg"}, {"measurement": "60% effective dose", "setting": "[1]; intravenous route", "result": 0.0002144, "unit": "µg/kg"}, {"measurement": "90% effective dose", "setting": "[1]; intravenous route", "result": 0.002701, "unit": "µg/kg"}, {"measurement": "duration of the antinociceptive effect", "setting": "[1]; one single administration, 1 μg/kg p.o.", "result": "up to 120 hours"}, {"measurement": "50% effective dose", "setting": "[1]; oral route", "result": 0.004146, "unit": "µg/kg"}, {"measurement": "60% effective dose", "setting": "[1]; oral route", "result": 0.006348, "unit": "µg/kg"}, {"measurement": "90% effective dose", "setting": "[1]; oral route", "result": 0.02106, "unit": "µg/kg"}, {"measurement": "opioid receptors involved in the antinociceptive effect", "setting": "[1]; peptide 1 μg/kg p.o., delta, kappa, mu antagonists i.pl.", "result": "kappa opioid receptors are involved"}, {"measurement": "opioid receptors involved in the antinociceptive activity", "setting": "[1]; peptide 5 μg/kg p.o., kappa and delta antagonists i.pl.", "result": "kappa opioid receptors are involved"}, {"measurement": "analgesic activity", "setting": "[1]; synthetic peptides compared with natural ENPAK-k, similar conditions", "result": "same analgesic activity as the natural ENPAK-k"}, {"measurement": "pain threshold, BM", "setting": "[2]; 0.0016 μg/kg p.o.", "result": "72 ± 1.22", "unit": "g"}, {"measurement": "pain threshold, FM 1 h", "setting": "[2]; 0.0016 μg/kg p.o.", "result": "32 ± 1.22", "unit": "g"}, {"measurement": "pain threshold, FM 3 h", "setting": "[2]; 0.0016 μg/kg p.o.", "result": "32 ± 1.22", "unit": "g"}, {"measurement": "pain threshold, FM 24 h", "setting": "[2]; 0.0016 μg/kg p.o.", "result": "33 ± 1.22", "unit": "g"}, {"measurement": "pain threshold, FM 48 h", "setting": "[2]; 0.0016 μg/kg p.o.", "result": "30 ± 0.00", "unit": "g"}, {"measurement": "pain threshold, FM 72 h", "setting": "[2]; 0.0016 μg/kg p.o.", "result": "32 ± 1.22", "unit": "g"}, {"measurement": "pain threshold, FM 96 h", "setting": "[2]; 0.0016 μg/kg p.o.", "result": "32 ± 1.22", "unit": "g"}, {"measurement": "pain threshold, IM", "setting": "[2]; 0.0016 μg/kg p.o.", "result": "33 ± 1.22", "unit": "g"}, {"measurement": "pain threshold, BM", "setting": "[2]; 0.008 μg/kg p.o.", "result": "74 ± 1.87", "unit": "g"}, {"measurement": "pain threshold, FM 1 h", "setting": "[2]; 0.008 μg/kg p.o.", "result": "34 ± 1.00", "unit": "g"}, {"measurement": "pain threshold, FM 3 h", "setting": "[2]; 0.008 μg/kg p.o.", "result": "30 ± 1.58", "unit": "g"}, {"measurement": "pain threshold, FM 24 h", "setting": "[2]; 0.008 μg/kg p.o.", "result": "30 ± 0.00", "unit": "g"}, {"measurement": "pain threshold, FM 48 h", "setting": "[2]; 0.008 μg/kg p.o.", "result": "33 ± 1.22", "unit": "g"}, {"measurement": "pain threshold, FM 72 h", "setting": "[2]; 0.008 μg/kg p.o.", "result": "31 ± 1.00", "unit": "g"}, {"measurement": "pain threshold, FM 96 h", "setting": "[2]; 0.008 μg/kg p.o.", "result": "32 ± 1.22", "unit": "g"}, {"measurement": "pain threshold, IM", "setting": "[2]; 0.008 μg/kg p.o.", "result": "33 ± 1.22", "unit": "g"}, {"measurement": "pain threshold, BM", "setting": "[2]; 0.04 μg/kg p.o.", "result": "71 ± 1.00", "unit": "g"}, {"measurement": "pain threshold, FM 1 h", "setting": "[2]; 0.04 μg/kg p.o.", "result": "29 ± 1.00", "unit": "g"}, {"measurement": "pain threshold, FM 3 h", "setting": "[2]; 0.04 μg/kg p.o.", "result": "30 ± 0.00", "unit": "g"}]}]}
